Laboratory results as given in ChEMBL document CHEMBL5584347, “Development of Nitric Oxide Releasing Oxoisoaporphines with Antidepressant Activities by Simultaneously Regulating MAO-A and SERT” (J Med Chem, 2024).
Activity calls are given as the source filed them. No cut-off for these calls is given here.

What was measured:
[1] = Cytotoxicity against human L02 cells incubated for 24 hrs by MTT assay; type: toxicity, cell-based
PC-12 = assay: Neuroprotective activity against corticosterone-induced cell injury in rat PC-12 cells assessed as increase in cell viability at 0.1 to 1 uM incubated for 24 hrs by CCK8 assay; type: functional, cell-based; conditions: dose 0.1-1 µM
[2] = Cytotoxicity against rat PC-12 cells incubated for 24 hrs by MTT assay; type: toxicity, cell-based
[3] = Cytotoxicity against human SH-SY5Y cells incubated for 24 hrs by MTT assay; type: toxicity, cell-based
Mus musculus [4] = assay: Upregulation of 5-HT level in mouse at 10 mg/kg in presence of isosorbide mononitrate; type: functional, organism-based
Mus musculus [5] = assay: Upregulation of 5-HT level in mouse at 10 mg/kg in presence of oxoisoaporphines; type: functional, organism-based
Mus musculus [6] = assay: Antidepressant activity in reserpine induced depressive mouse model assessed as 5-HT level in brain at 10 mg/kg preadministered with reserpine for 3 days followed by compound addition from day 4 to 10 by LC-MS analysis (reference value: 186.46 ng/ml); type: functional; conditions: time 7 day
Danio rerio [7] = assay: Antidepressant activity in reserpine-induced depressive zebrafish model assessed as increase in total distance traveled at 1 uM preadministered with reserpine for 40 mins followed by compound administration and measured after 7 days by novel tank test; type: functional, organism-based; conditions: time 7.0 day
Danio rerio [8] = assay: Antidepressant activity in reserpine-induced depressive zebrafish model assessed as increase in time spend in upper part at 1 uM preadministered with reserpine for 40 mins followed by compound administration and measured after 7 days by novel tank test; type: functional, organism-based; conditions: time 7.0 day
Danio rerio [9] = assay: Antidepressant activity in reserpine-induced depressive zebrafish model assessed as increase in speed of movement at 1 uM preadministered with reserpine for 40 mins followed by compound administration and measured after 7 days by open field test; type: functional, organism-based; conditions: time 7.0 day
Danio rerio [10] = assay: Antidepressant activity in reserpine-induced depressive zebrafish model assessed as increase in total distance traveled at 1 uM preadministered with reserpine for 40 mins followed by compound administration and measured after 7 days by open field test; type: functional, organism-based; conditions: time 7.0 day
Mus musculus [11] = assay: Antidepressant activity in chronic unpredictable mild stress induced depressive C57 mouse model assessed as increase in movement at 10 mg/kg administered continuously for 2 weeks post 5 weeks of chronic unpredictable mild stress by open field test; type: functional, organism-based
Danio rerio [12] = assay: Antidepressant activity in reserpine-induced depressive zebrafish model assessed as reduction in immobility time at 1 uM preadministered with reserpine for 40 mins followed by compound administration and measured after 7 days by open field test; type: functional, organism-based; conditions: time 7.0 day
Danio rerio [13] = assay: Antidepressant activity in reserpine-induced depressive zebrafish model assessed as increase in speed of movement at 1 uM preadministered with reserpine for 40 mins followed by compound administration and measured after 7 days by novel tank test; type: functional, organism-based; conditions: time 7.0 day
Mus musculus [14] = assay: Antidepressant activity in chronic unpredictable mild stress induced depressive C57 mouse model assessed as increase in total distance traveled at 10 mg/kg administered continuously for 2 weeks post 5 weeks of chronic unpredictable mild stress by open field test; type: functional, organism-based

Structure (SMILES)	IC50 at 24 h [1] [µM]	Activity (PC-12)	IC50 at 24 h [2] [µM]	IC50 at 24 h [3] [µM]	also measured
O=C1c2ccccc2-c2nccc3cc(OCCCCCO[N+](=O)[O-])cc1c23	> 100	Active	> 10	> 100	–
O=C1c2ccccc2-c2nccc3cc(OCCCCOc4no[n+]([O-])c4S(=O)(=O)c4ccccc4)cc1c23	> 100	inactive	> 10	> 100	–
O=C1c2ccccc2-c2nccc3cc(OCCOc4no[n+]([O-])c4S(=O)(=O)c4ccccc4)cc1c23	> 100	inactive	> 10	> 100	–
O=C1c2ccccc2-c2nccc3cc(OCCCCO[N+](=O)[O-])cc1c23	> 100	Active	> 10	> 100	–
O=C1c2ccccc2-c2nccc3cc(OCCCCCOc4no[n+]([O-])c4S(=O)(=O)c4ccccc4)cc1c23	> 100	inactive	> 10	> 100	–
O=C1c2ccccc2-c2nccc3cccc1c23	–	–	–	–	Activity (Mus musculus [4]): Active
O=[N+]([O-])O[C@@H]1CO[C@H]2[C@@H]1OC[C@@H]2O	–	–	–	–	Activity (Mus musculus [5]): Active
O=C1c2ccccc2-c2nccc3cc(OCCCCCCOc4no[n+]([O-])c4S(=O)(=O)c4ccccc4)cc1c23	> 100	inactive	> 10	> 100	–
O=C1c2ccccc2-c2nccc3cc(OCCO[N+](=O)[O-])cc1c23	> 100	Active	> 10	> 100	–
O=C1c2ccccc2-c2nccc3cc(OCCCCCCO[N+](=O)[O-])cc1c23	> 100	Active	> 10	> 100	–
CNCCC(Oc1ccc(C(F)(F)F)cc1)c1ccccc1 (configuration not stated) [FLUOXETINE]	–	–	–	–	Activity (Mus musculus [6]): 223.45 ng/mL; Activity (Danio rerio [7]): Active; Activity (Danio rerio [8]): Active; Activity (Danio rerio [9]): Active; Activity (Danio rerio [10]): Active; Activity (Mus musculus [11]): Active; Activity (Danio rerio [12]): Active; Activity (Danio rerio [13]): Active; Activity (Mus musculus [14]): Active
O=C1c2ccccc2-c2nccc3cc(OCCCOc4no[n+]([O-])c4S(=O)(=O)c4ccccc4)cc1c23	> 100	inactive	> 10	> 100	–
